# Measurements reported in patent publication US11136342B2, “Carbonate prodrugs and methods of using the same” (Acorda Therapeutics, Inc., priority 2008, dated 2021).
# Read-outs that look alike come from different tables or passages of the source.
# Columns and labels:
# Format in all cases: physicochemical
# [1] = Prodrug stability in propylene glycol-d8 at room temperature by 1H and 31P NMR
# Protocol: (4-acetamidophenyl carbonic) phosphoric anhydride (20.4 mg) was dissolved in 600 mg propylene glycol-d8 and ^1H and ^31P NMR spectra were recorded at room temperature. In addition to (4-acetamidophenyl carbonic) phosphoric anhydride (d−766 ppm), there were peaks at d+334, 265 (likely H3PO4) and +203 ppm.
# [2] = Prodrug stability in propylene glycol-d8 at low temperature by 1H NMR
# Protocol: Two samples of (4-acetamidophenyl carbonic) phosphoric anhydride (20 mg each) were dissolved in propylene glycol-d8 (600 mg) and the samples were stored at 4° C. and −20° C.
# [3] = Solubility of the prodrug in water, glycerol and propylene glycol; settings: for solubility: thermodynamic from solid
# Protocol: Solubility of the prodrug (4-acetamidophenyl carbonic) phosphoric anhydride was determined in water, glycerol, and propylene glycol. 10 mg of (4-acetamidophenyl carbonic) phosphoric anhydride was weighed into a vial, small amounts of solvent were added and the mixture was sonicated until a solution formed.
# [4] = Prodrug stability in D2O by proton NMR; settings: for Remaining Prodrug: water (D2O), room temperature
# Protocol: (4-acetamidophenyl carbonic) phosphoric (29.5 mg) was dissolved in D2O (0.7 mL) and monitored by proton NMR.
compound,measurement,setting,value
CC(=O)Nc1ccc(OC(=O)OP(=O)(O)O)cc1 [(4-acetamidophenyl carbonic) phosphoric anhydride],half-life at 34 mg/g solvent,[1],~6.3 h
same,Remaining Prodrug 1H NMR,[1]; 10 min,94.03%
same,Remaining Prodrug 31P NMR,[1]; 10 min,96.7%
same,Remaining Prodrug 1H NMR,[1]; 18 min,92.64%
same,Remaining Prodrug 31P NMR,[1]; 18 min,94.5%
same,Remaining Prodrug 1H NMR,[1]; 28 min,90.79%
same,Remaining Prodrug 31P NMR,[1]; 28 min,92.1%
same,Remaining Prodrug 1H NMR,[1]; 41 min,88.57%
same,Remaining Prodrug 31P NMR,[1]; 41 min,89.9%
same,Remaining Prodrug 1H NMR,[1]; 51 min,86.84%
same,Remaining Prodrug 31P NMR,[1]; 51 min,88.4%
same,Remaining Prodrug 1H NMR,[1]; 61 min,85.36%
same,Remaining Prodrug 31P NMR,[1]; 61 min,86.4%
same,Remaining Prodrug 1H NMR,[1]; 70 min,83.93%
same,Remaining Prodrug 31P NMR,[1]; 70 min,85.0%
same,Remaining Prodrug 1H NMR,[1]; 120 min,74.63%
same,Remaining Prodrug 31P NMR,[1]; 120 min,77.6%
same,Remaining Prodrug 1H NMR,[1]; 169 min,68.80%
same,Remaining Prodrug 31P NMR,[1]; 169 min,71.7%
same,Remaining Prodrug 1H NMR,[1]; 228 min,62.97%
same,Remaining Prodrug 31P NMR,[1]; 228 min,64.9%
same,Remaining Prodrug 1H NMR,[1]; 297 min,56.82%
same,Remaining Prodrug 31P NMR,[1]; 297 min,57.4%
same,Remaining Prodrug 1H NMR,[1]; 345 min,52.10%
same,Remaining Prodrug 31P NMR,[1]; 345 min,52.8%
same,Remaining Prodrug 1H NMR,[1]; 380 min,49.13%
same,Remaining Prodrug 31P NMR,[1]; 380 min,49.6%
same,Remaining Prodrug 1H NMR,[1]; 425 min,46.33%
same,Remaining Prodrug 31P NMR,[1]; 425 min,46.6%
same,Remaining Prodrug 1H NMR,[1]; 446 min,45.67%
same,Remaining Prodrug 31P NMR,[1]; 446 min,44.0%
same,Remaining Prodrug 1H NMR,[1]; 1269 min,19.61%
same,Remaining Prodrug 31P NMR,[1]; 1269 min,17.1%
same,Effect of low temperature storage on stability,"[2]; propylene glycol-d8, 4° C. and −20° C.",low temperature storage improved the stability
same,Acetaminophen Formation,"[2]; propylene glycol-d8, 4° C., 0.17 h",7.1%
same,Acetaminophen Formation,"[2]; propylene glycol-d8, 4° C., 19.3 h",37.8%
same,Acetaminophen Formation,"[2]; propylene glycol-d8, 4° C., 44.5 h",58.5%
same,Acetaminophen Formation,"[2]; propylene glycol-d8, 4° C., 68.7 h",71.5%
same,Acetaminophen Formation,"[2]; propylene glycol-d8, 4° C., 94.0 h",79.3%
same,Acetaminophen Formation,"[2]; propylene glycol-d8, 4° C., 116 h",83.1%
same,Acetaminophen Formation,"[2]; propylene glycol-d8, 4° C., 140 h",84.6%
same,Acetaminophen Formation,"[2]; propylene glycol-d8, −20° C., 0.17 h",10.1%
same,Acetaminophen Formation,"[2]; propylene glycol-d8, −20° C., 19.3 h",15.0%
same,Acetaminophen Formation,"[2]; propylene glycol-d8, −20° C., 44.5 h",20.5%
same,Acetaminophen Formation,"[2]; propylene glycol-d8, −20° C., 68.7 h",25.0%
same,Acetaminophen Formation,"[2]; propylene glycol-d8, −20° C., 94.0 h",29.0%
same,Acetaminophen Formation,"[2]; propylene glycol-d8, −20° C., 116 h",32.2%
same,Acetaminophen Formation,"[2]; propylene glycol-d8, −20° C., 140 h",36.2%
same,solubility,"[3]; organic solvent or mixture, glycerol d=1.25 g/mL, read-out: Solubility in glycerol",20.6 mg/mL
same,solubility,"[3]; organic solvent or mixture, propylene glycol d=1.036 g/mL, read-out: Solubility in propylene glycol",154 mg/mL
same,solubility,"[3]; water, room temperature, read-out: Solubility in water",152 mg/mL
same,Water solubility relative to acetaminophen,"[3]; water, room temperature",more than 10 times
same,half-life at 42.1 mg/mL,"[4]; D2O, 29.5 mg in 0.7 mL",~1.5 h
same,Remaining Prodrug,[4]; 3 min,94.4%
same,Remaining Prodrug,[4]; 9 min,90.3%
same,Remaining Prodrug,[4]; 14 min,86.4%
same,Remaining Prodrug,[4]; 29 min,75.7%
same,Remaining Prodrug,[4]; 39 min,70.9%
same,Remaining Prodrug,[4]; 49 min,65.6%
same,Remaining Prodrug,[4]; 60 min,61.0%
same,Remaining Prodrug,[4]; 75 min,55.5%
same,Remaining Prodrug,[4]; 90 min,50.6%
same,Remaining Prodrug,[4]; 105 min,46.0%
same,Remaining Prodrug,[4]; 120 min,41.7%
same,Remaining Prodrug,[4]; 146 min,36.7%
same,Remaining Prodrug,[4]; 188 min,29.3%
same,Remaining Prodrug,[4]; 270 min,20.2%
same,Remaining Prodrug,[4]; 375 min,13.9%
same,Remaining Prodrug,[4]; 420 min,11.7%
same,Remaining Prodrug,[4]; 495 min,8.4%
same,Remaining Prodrug,[4]; 840 min,3.0%
same,Remaining Prodrug,[4]; 1410 min,1.4%
